Measurements from paper PMC4659430 (Journal of biomolecular screening, 2015).
Entries after “also recorded” stand apart in the source; their conditions may differ.

Tests used:
Type in all cases: cell-based
[1] = target: T1, human M4 (hM4) (Homo sapiens, UniProt P08173); assay: M4 multiparametric FLIPR calcium assay, agonist mode; conditions: compound tested at 3 µM, versus DMSO
T1 sequence (P08173 1-479): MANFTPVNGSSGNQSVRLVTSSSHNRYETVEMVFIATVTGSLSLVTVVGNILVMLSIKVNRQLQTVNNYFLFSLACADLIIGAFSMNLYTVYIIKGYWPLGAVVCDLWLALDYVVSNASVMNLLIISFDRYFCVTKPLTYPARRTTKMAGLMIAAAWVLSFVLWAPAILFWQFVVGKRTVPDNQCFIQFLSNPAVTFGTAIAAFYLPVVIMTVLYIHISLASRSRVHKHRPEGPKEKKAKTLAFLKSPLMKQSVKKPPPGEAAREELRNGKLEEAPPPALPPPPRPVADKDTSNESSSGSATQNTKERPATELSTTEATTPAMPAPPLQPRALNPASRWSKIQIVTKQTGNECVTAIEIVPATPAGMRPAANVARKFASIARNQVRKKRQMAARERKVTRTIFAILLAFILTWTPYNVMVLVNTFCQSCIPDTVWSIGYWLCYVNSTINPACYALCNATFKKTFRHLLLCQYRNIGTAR

[2] = target: T1, human M4 (hM4); assay: M4 multiparametric FLIPR calcium assay, PAM mode; conditions: compound tested at 3 µM, versus EC20 acetylcholine
[3] = target: T1, human M4 (hM4); assay: M4 multiparametric FLIPR calcium assay, antagonist mode; conditions: compound tested at 3 µM, versus EC80 acetylcholine

Row | SMILES | response in agonist mode (kinetic trace) [1] | response in PAM mode (kinetic trace) [2] | response in antagonist mode (kinetic trace) [3]
1 | COc1ccc(CNC(=O)c2sc3nc(C)cc(C)c3c2N)cc1 [ML108] | active; also recorded: yielded responses in the agonist mode | classified as PAMs | –
2 | C/C=C(/C)C(=O)O[C@H]1C(C)=C2[C@H]([C@@H]1OC(=O)CCCCCCC)[C@@](C)(OC(C)=O)C[C@H](OC(=O)CCC)[C@@]1(O)[C@H]2OC(=O)[C@@]1(C)O [thapsigargin] | hit in all modes | hit in all modes | hit in all modes
